Source: patent US8372863B2, “Tetrahydro-1H-pyrrolo fused pyridones” (Merck Sharp & Dohme Corp., priority 2008, dated 2013)

Molecular target: PHD2 (Homo sapiens, UniProt Q9GZT9)
Test: PHD2 / HIF-1α peptide hydroxylation assay with time resolved fluorescence readout (PHD2 binding activity)
Assay type: biochemical
Conditions: FLAG-tagged full length PHD2; 0.2 μM 2-oxoglutarate, 0.5 μM HIF-1α peptide; read-out: PHD2 Activity (PHD2 binding activity expressed as IC50)
Description: After a 30 min preincubation at room temperature, the enzymatic reactions were initiated by the addition of 4 μL of substrates (final concentrations of 0.2 μM 2-oxoglutarate and 0.5 μM HIF-1α peptide biotinyl-DLDLEMLAPYIPMDDDFQL). After 2 hr at room temperature, the reactions were terminated and signals were developed by the addition of a 25 μL quench/detection mix to a final concentration of 1 mM ortho-phenanthroline, 0.1 mM EDTA, 0.5 nM anti-(His)6 LANCE reagent (Perkin-Elmer Life Sciences), 100 nM AF647-labeled streptavidin (Invitrogen), and 2 μg/ml (His)6-VHL complex (S. Tan(2001) Protein Expr. Purif 21, 224-234). The ratio of time resolved fluorescence signals at 665 and 620 nm was determined, and percent inhibition was calculated relative to an uninhibited control sample run in parallel.

Sequence of PHD2 (Q9GZT9 whole entry): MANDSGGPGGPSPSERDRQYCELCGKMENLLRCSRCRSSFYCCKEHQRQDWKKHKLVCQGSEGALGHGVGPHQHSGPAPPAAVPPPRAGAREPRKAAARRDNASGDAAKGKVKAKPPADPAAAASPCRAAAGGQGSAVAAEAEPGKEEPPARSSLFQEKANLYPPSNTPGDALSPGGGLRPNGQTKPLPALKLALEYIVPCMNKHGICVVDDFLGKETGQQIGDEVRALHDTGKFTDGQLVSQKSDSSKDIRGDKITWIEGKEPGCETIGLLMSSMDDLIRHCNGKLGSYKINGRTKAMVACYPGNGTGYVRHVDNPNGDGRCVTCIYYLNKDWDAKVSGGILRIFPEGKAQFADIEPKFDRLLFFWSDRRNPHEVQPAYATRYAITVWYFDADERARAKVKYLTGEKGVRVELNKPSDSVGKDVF

| IC50 [nM] | Structure (SMILES) |
| --- | --- |
| < 10 | O=C(O)CNC(=O)c1c(O)c2c(n(Cc3cccc(-c4ccc(F)nc4)c3)c1=O)CN(C(=O)c1cscn1)C2 [Example 53, N-{[1-[3-(6-fluoropyridin-3-yl)benzyl]-4-hydroxy-2-oxo-6-(1,3-thiazo1-4-ylcarbonyl)-2,5,6,7-tetrahydro-1H-pyrrolo[3,4-b]pyridin-3-yl]carbonyl}glycine] |
| < 10 | O=C(O)CNC(=O)c1c(O)c2c(n(Cc3ccccc3)c1=O)CN(C(=O)c1cscn1)C2 [Example 54, N-{[1-benzyl-4-hydroxy-2-oxo-6-(1,3-thiazol-4-ylcarbonyl)-2,5,6,7-tetrahydro-1H-pyrrolo[3,4-b]pyridin-3-yl]carbonyl}glycine] |
| < 10 | N#Cc1ccccc1Cn1c2c(c(O)c(C(=O)NCC(=O)O)c1=O)CN(C(=O)c1cscn1)C2 [Example 56, N-{[1-(2-cyanobenzyl)-4-hydroxy-2-oxo-6-(1,3-thiazol-4-ylcarbonyl)-2,5,6,7-tetrahydro-1H-pyrrolo[3,4-b]pyridin-3-yl]carbonyl}glycine] |
